Laboratory results as given in ChEMBL document CHEMBL2169770, “The discovery and optimization of a novel class of potent, selective, and orally bioavailable anaplastic lymphoma kinase (ALK) inhibitors with potential utility for the treatment of cancer” (J Med Chem, 2012).

Key:
[1] = Volume of distribution at steady state in rat; assay type: ADME, organism-based; conditions: in vivo, read-out: Vdss
[2] = Oral bioavailability in Beagle dog; assay type: ADME, organism-based, Canis lupus familiaris; conditions: in vivo
[3] = Volume of distribution at steady state in Beagle dog; assay type: ADME, organism-based, Canis lupus familiaris; conditions: in vivo, read-out: Vdss
[4] = Oral bioavailability in rat; assay type: ADME, organism-based; conditions: in vivo

Vd [1]	bioavailability [2]	Vd [3]	bioavailability [4]	SMILES
6.4 L/kg	52%	1.58 L/kg	20%	CC(C)NC(=O)[C@H]1CC[C@@H](n2/c(=N/C(=O)c3ccc(F)cc3)[nH]c3ccc(CN4CCC(C(C)(C)O)CC4)cc32)CC1
5.42 L/kg	71%	1.82 L/kg	11%	CC(C)NC(=O)[C@H]1CC[C@@H](n2/c(=N/C(=O)c3cc(F)cc(F)c3)[nH]c3ccc(CN4CCC(C(C)(C)O)CC4)cc32)CC1
